One data set has as its system HCT-116, HeLa and MCF-7. In words: MTT cell viability assay, all tested cell lines together. The class given is cell-based. Particulars: Homo sapiens; average over HCT-116, HeLa and MCF-7; read-out: average IC50 against all tested cell lines. The protocol:
(§1) All chemicals, if not stated otherwise, were obtained from Sigma-Aldrich (St. Louis, MO, USA). The MCF-7 cell line was purchased from Cell Lines Services (Eppelheim, Germany), the HeLa and HCT-116 cell lines were obtained from the Department of Microbiology, Tumor and Cell Biology, Karolinska Institute (Stockholm, Sweden). Cells were cultured in Dulbecco’s modified Eagle’s medium (DMEM) supplemented with 10% fetal bovine serum, 2 mM glutamine, 100 units/mL penicillin, and 100 μg/mL streptomycin. Cultures were maintained in a humidified atmosphere with 5% CO2 at 37 °C in an incubator (HeraCell, Heraeus, Langenselbold, Germany).
(§2) Cell viability was determined using the MTT (3-(4,5-dimethylthiazol-2-yl)-2,5-diphenyl-tetrazoliumbromide) assay. Stock solutions of the studied compounds were prepared in 100% DMSO. […] Cells were seeded in 96-well plates at a density of 5 × 10^3 cells/well and treated for 72 h with the examined compounds in the concentration range 1–100 μM (1, 10, 25, 50 and 100 μM). Following treatment, MTT (0.5 mg/mL) was added to the medium and cells were further incubated for 2 h at 37 °C. Cells were lysed with DMSO and the absorbance of the formazan solution was measured at 550 nm with a plate reader (1420 multilabel counter, Victor, Jügesheim, Germany). […] The experiment was performed in triplicate. Values are expressed as the mean ± SD of at least three independent experiments.

The subject of a further data set is HeLa (cervical cancer). In words: MTT cell viability assay, HeLa. Particulars: Homo sapiens, 72 h, 72 h of incubation, mean ± SD. Format: cell-based, human. The protocol:
as §1, §2
(In general: Tetrazolium assays rely on reduction of a dye to a coloured formazan, in cell work by metabolically active cells.)

For a further data set, the system named is MCF-7 (breast cancer). The data set is described as follows: MTT cell viability assay, MCF-7. The class given is cell-based, human. Particulars: Homo sapiens, MCF7, 72 h of incubation, mean ± SD. The protocol:
as §1, §2

For a further data set, the system named is HCT-116 (colon cancer). The data set is described as follows: MTT cell viability assay, HCT-116. Format: cell-based, human. The note with it: Homo sapiens, HCT-116, 72 h, 72 h of incubation, mean ± SD. The protocol: as §1, §2
The subject of data set [1] is MCF-7. The data set is described as follows: Cell cycle analysis (sub-G1, DAPI flow cytometry), MCF-7. The class given is cell-based, human. The note with it: MCF-7, 24 h, mean ± SD. The protocol: One of the most common mechanisms in anticancer drug treatment is changes in cell cycle, which can be measured by DNA content. Cell cycle distribution in HCT-116, HeLa and MCF-7 cells was examined to determine cycle arrest and/or presence of sub-G1 after treatment with compounds 37 and 46. […] Cell populations data are expressed as the mean ± SD of at least three independent experiments.
Following treatment, cells were fixed in cold 70% ethanol for 30 min. Fixed cells were stained for 15 min in buffer containing 500 μg/mL RNAse A (EURx, Gdansk, Poland) and 2.5 μg/mL of DAPI (Sigma-Aldrich, Munich, Germany). The fluorescence of DAPI was measured at 440 ± 40 nm with a flow cytometer (LSR II, BD Biosciences, Mountain View, CA, USA). Each experiment was performed at least in triplicate. Data were analyzed off-line using the BD FACSDiva (BD Biosciences).

Data set [2] is described as follows: Metabolic stability with human liver microsomes and NADPH. The class given is in vitro ADME. The note with it: liver microsomes. The protocol: Stock solutions of studied compounds were prepared at concentration of 10 mM in DMSO. […] Incubation mixture contained 10 μM of a studied derivative, 1 mM of NADPH (Sigma-Aldrich) and 0.5 mg/mL of human liver microsomes (HLM, Sigma-Aldrich) in potassium phosphate buffer (0.1 M, pH 7.4). Incubation was carried out in thermostat at 37 °C and started by addition of studied compound. 50 μL samples were taken after 5, 15, 30, 45 and 60 min. Enzymatic reaction was terminated by the addition of the equal volume of ice-cold acetonitrile containing 10 μM of alprazolam (Sigma-Aldrich) serving as internal standard (IS). Control incubations were performed without NADPH to assess chemical instability. After collection, samples were immediately centrifuged (10 min, 10,000 rpm) and resulted supernatant was directly analyzed or kept in −80 °C until LC-MS analysis. Natural logarithm of a compound over IS peak area ratio was plotted versus incubation time. Metabolic half-time (t1/2) was calculated from the slope of the linear regression, as reported in [48].
LC-MS analysis was performed on an Agilent 1260 system coupled to SingleQuad 6120 mass spectrometer (Agilent Technologies, Santa Clara, CA, USA). Ascentis Express ES-CN (2.1 mm × 100 mm, 2.7 μm, Supelco Analytical, Bellefonte, PA, USA) was used in reversed-phase mode with gradient elution starting with 50% of phase A (10 mM ammonium formate in water) and 50% of phase B (10 mM ammonium formate in acetonitrile-water mixture, 95:5 v/v). […] Total analysis time was 10 min at 25 °C, flow rate was 0.4 mL/min and the injection volume was 20 μL. The mass spectrometer was equipped with electrospray ion source and operated in positive ionization. Mass analyzer was set individually to each compound to detect [M + H]^+ pseudomolecular ions. MSD parameters of the ESI source were as follows: nebulizer pressure 50 psig (N2), drying gas […] (N2), drying gas temperature 300 °C, capillary voltage 3.5 kV, fragmentor voltage 100 V.
(In general: Liver microsomes are a subcellular fraction often used to study metabolism.)

Data set [3] has as its system MCF-7. In words: Mitochondrial membrane potential (JC-1), MCF-7. Format: cell-based, human. Particulars: MCF-7, 24 h, low and moderate concentrations. The protocol: Loss of the mitochondrial membrane potential (Δψm) is one of the earliest indicators of an apoptosis. It can be detected using fluorescent dye JC-1 (5,5′,6,6′-tetrachloro-1,1′,3,3′-tetraethylbenzimidazolylcarbocyanine iodide) exited with blue laser. JC-1 spontaneously forms dimer complexes (J aggregates) with red fluorescent or remain as a monomers with green fluorescence in cells with high and low Δψm, respectively.
Half an hour before the end of 24 h-treatment 2.5 μg/mL of JC-1 (5,5′,6,6′-tetrachloro-1,1′,3,3′-tetraethylbenzimidazolylcarbocyanine iodide) was added to the cell medium. As a negative control 100 μM CCCP (carbonyl cyanide 3-chlorophenylhydrazone) was used 15 min before JC-1 treatment. Following treatment cells were twice washed with PBS and analyzed with flow cytometer (LSR II, BD Biosciences).
Green and red fluorescence were observed using FL-1 (530 ± 30 nm) and FL-2 (585 ± 42 nm) channels, respectively. Percentage of cell population in red or green fluorescence gate indicated the level of Δψm. Decreasing red fluorescence cell population indicated lower Δψm.

Structures are written as SMILES. Like-named read-outs stand apart in the source and are kept apart here.

By IC50 is commonly meant the concentration that inhibits the measured activity by half.

As to `O=C(Nc1ccc(Cl)cc1)c1cc(S(=O)(=O)Nc2nncc(-c3ccc(C(F)(F)F)cc3)n2)c(SCc2ccccc2)cc1Cl` [Compound 46, 4-Benzylthio-2-chloro-N-(4-chlorophenyl)-5-{N-[5-(4-trifluoromethylphenyl)-1,2,4-triazin-3-yl]sulfamoyl}-benzamide], the IC50 in the data set on HCT-116, HeLa and MCF-7 is < 71 µM; in the data set on HeLa (cervical cancer) it was 80 ± 2 µM; in the data set with MCF-7 (breast cancer), 59 ± 2 µM; in the data set with HCT-116 (colon cancer), 64 ± 1 µM. The Sub-G1 cell population with MCF-7 [1] is reported as 20% ± 5.6%. Also, the half-life at 10 μM in data set [2] (pH 7.4, human liver microsomes 0.5 mg/mL, 1 mM NADPH, 10 μM compound, pH 7.4, 37 °C, up to 60 min, read-out: In Vitro Metabolic Half-Life t1/2) was > 60 min; in data set [2] (pH 7.4, value in parentheses beside >60, beyond the 60 min incubation, human liver microsomes, NADPH, read-out: In Vitro Metabolic Half-Life t1/2 (min), value in parentheses), 78.1 min. Also, the “effect on mitochondrial membrane potential (Δψm)” value in the data set on MCF-7 [3] is “remarkably decreased Δψm”.

Source of the values: publication PMC6273912, “Novel 5-Substituted 2-(Aylmethylthio)-4-chloro-N-(5-aryl-1,2,4-triazin-3-yl)benzenesulfonamides: Synthesis, Molecular Structure, Anticancer Activity, Apoptosis-Inducing Activity and Metabolic Stability” (Molecules, 2016).
